According to patent publication US7449495B2, “Retinoid derivatives with antiangiogenic, antitumoral and proapoptotic activities” (Sigma-Tau Industrie Farmaceutiche Riunite S.p.A., priority 2001, dated 2008):
Where “and” joins values, the source holds several entries; their conditions need not be identical. Identical values can stand only once.

Columns and labels:
[1] = tested on: human microvascular endothelial (HMVE) cells; details: after 96 h of treatment, cited from earlier work; for inhibition (%) at 0.5 μM: relative to vehicle alone control; for IC50: highest concentration evaluated 0.5 μM, read-out: IC50 (concentration inhibiting proliferation by 50%)
[2] = tested on: NB4 acute promyelocytic leukaemia cell line; test: Cytotoxicity test (sulphorodamine B), NB4; type: cell-based, human; details: Homo sapiens, 24 h incubation, survival 48 h after removal, read-out: IC50 ± SD
Description: To carry out the cytotoxicity tests, two acute promyelocytic leukaemia (APL) cell lines were used. • 1. Cell line NB4, carrying the chromosomal translocation t(15; 17) which generates the fusion protein PML/RARα. This cell line is extremely sensitive to the differentiating action of pharmaceutical doses of ATRA (10^−7-10^−6 M); • 2. Cell line HL60, which responds to ATRA less sensitively with respect to cell line NB4.
These cell lines were maintained in RPMI 1640 containing 10% foetal calf serum (FCS) and 1% glutamine.
The cytotoxicity tests were carried out using NB4 or HL-60 cells in suspension (10000/well). The cells were seeded in a volume of 250 μl in 96 well plates and incubated for 24 hours at 37° C. The following day, test compound ST 1926 [(2E)-3-[3′-(1-Adamantyl)-4′-hydroxy[1,1′-biphenyl]-4-yl]-2-propenoate/ic acid] was added at increasing concentrations, and the cells were incubated for a further 24 hours at 37° C. in a humidified atmosphere containing 5% CO2. On the 3rd day, the medium was removed by centrifuging the plate at 1600×g for 10 min and the supernatant decanted. 250 μl of PBS were added; then the plates were centrifuged again at 1600×g for 10 minutes and the supernatant decanted. 200 μl/well of RPMI 1640 medium containing 10% FCS were added and the plates were incubated at 37° C. for a further 48 hours. On the 5th day, the plates were again centrifuged at 1600×g for 10 minutes, and the medium was removed by upturning the plates, 200 μl of PBS and 50 μl of cold, 80% TCA were added. The plates were then left to incubate on ice for at least 1 hour. The TCA was removed by upturning; the plates were washed three times by immersion in distilled water and dried first on paper, then with a jet of hot air. To all wells were added 200 μl of 0.4% sulphorodamine B in 1% acetic acid. The plates were incubated at room temperature for a further 30 minutes. […] The optical density was measured using a Multiskan spectrophotometer at 540 nm.
(§1) Cell survival was determined by incubation with ST1926 for 24 hours, 48 hours after the removal of the compound. […]

[3] = tested on: Human prostate carcinoma PC3; test: Cytotoxicity test (sulphorodamine B), PC3; type: cell-based; details: 24 h incubation, survival 48 h after removal, read-out: IC50 ± SD
Description: (§2) Different cell lines deriving from solid tumors were also used. • 1. Human prostate carcinoma PC3 and DU145. These cell lines were maintained in RPMI 1640 medium containing 10% FCS, 1% sodium pyruvate and 1% glutamine; • 2. Human colon adenocarcinoma LoVo. This cell line was maintained in HAM's F-12 medium, containing 10% FCS and 1% glutamine. • 3. Human ovarian carcinoma such as A2780 and A2780/Dx, sensitive and resistant to drugs, respectively (doxorubicin, taxol, etoposide, vincristine); IGROV-1 and IGROV-1/Pt, sensitive and resistant to platinum-based chemotherapy, respectively, were maintained in RPMI 1640 medium containing 10% FCS, 1% sodium pyruvate and 1% glutamine; • 4. Human melanoma MeWo and MeS 2.21, glioblastoma GBM, no small cell lung carcinomas A431, NCI—H460, osteosarcomas SAOS and U2OS were maintained in RPMI 1640 medium containing 10% FCS, 1% sodium pyruvate and 1% glutamine.
(§3) The cytotoxicity tests were carried out using NB4 or HL-60 cells in suspension (10000/well). The cells were seeded in a volume of 250 μl in 96 well plates and incubated for 24 hours at 37° C. […] The optical density was measured using a Multiskan spectrophotometer at 540 nm. […]
as §1

[4] = tested on: Human colon adenocarcinoma LoVo; test: Cytotoxicity test (sulphorodamine B), LoVo; type: cell-based; details: 24 h incubation, survival 48 h after removal, read-out: IC50 ± SD
Description: as §2, §3, §1

[5] = tested on: NB4 cells; test: Pro-differentiating effect on NB4 cells (NBT); type: cell-based; details: Homo sapiens, NB-4, 72 h, NB4, three days, read-out: AC50 (activating concentration for 50% cellular differentiation) ± SD
Procedure: NB4 cells were plated at a density of 150000 cells/ml in RPMI 1640 medium containing 10% foetal serum. The cells were then treated with ST1879 or ST1898 at decreasing concentrations starting from 0.4 μM to 0.01 μM and placed in an incubator for three days without any change of the media. To measure the differentiating effect 500000 cells from each sample were collected, centrifuged and resuspended in 1 ml of RPMI 1640 medium containing 10% serum, 1 mg/ml nitroblue tetrazolium (NBT) and 100 ng of PMA (phorbol myristyl acetate). The cells, resuspended as above, were incubated at 37° C. for 60 minutes. At the conclusion of incubation the cells were centrifuged and the precipitate resuspended in 1 ml of PBS containing 10% Triton ×100. The samples were sonicated until lysed and then read by spectrophotometer at a wavelength of 540 nm. Samples containing differentiated cells turn a purplish colour whilst the control samples and/or these with non differentiated cells remain white or much less intensely coloured. The pro-differentiating action of ST1879 or of ST1898 has been evaluated in terms of AC50 (activating concentration for 50% cellular differentiation) as reported below.

[6] = tested on: chicken chorioallantoic membrane vessels, bFGF induced; test: Angiostatic activity in chicken chorioallantoic membrane (CAM) model; type: in vivo; details: for 12th day (72 hours), number of vessels per sponge / Δvessels: mean ± SE
Description: The chicken chorioallantoic membrane is a very vascularised membrane in which the vessels make their appearance at the 4th day of development, develop an arteriovenal system by the 8th day of development, and actively proliferate until the 11th day.
The aim of the study was to follow vasal development in the CAM under basal conditions and in the presence of an inducer bFGF (basic Fibroblast Growth Factor) of vasoproliferation. This study used chicken embryonal eggs at the initial stage of their development. On the 3rd day of development an operation to open the shells was performed to make the vessels of the CAM visible. The treatment was administered on the 9th day of development by applying a fragment of sterile gelatine (GELFOAM Pharmacia-Upjohn) about 1 mm^3, to the CAM surface, onto which was administered the bFGF (50 ng/embryo) or the products in question, for 3 consecutive days.
The evaluation of the effect of the molecule on vasoproliferation was obtained by a comparison of the vessels at the time of zero treatment with these of later times (12th day).

[7] = tested on: human no small cell lung carcinoma NCI-H460; test: Antitumoral activity in human no small cell lung carcinoma model NCI-H460; type: in vivo; details: NCI-H460, 15 mg/kg ip, q7dx3
Procedure: The ST1926 solution was prepared immediately before use and solubilised in cremophor:ethanol 1:1 and subsequently diluted 1:4 in buffered saline solution. The animal treatments were administered in a volume of 10 ml/kg. […] Measurements of tumor dimensions were performed using a digital calliper (Vernier Caliper) twice weekly, from the time in which the mass was measurable. The tumor mass was evaluated from the size of the two principal dimensions (length and breadth), expressed in mm, applying the formula (length×breadth^2)/2, that is, the tumor volume in mm3. For each experimental group, the percentage of tumor volume inhibition was calculated (TVI %), with respect to the control, namely (100−(T/C %). TVI was evaluated 2 days after the final administration of ST1926.
A comparison between the TVI values obtained for each group was performed using the non parametric Mann Whitney test for non-paired data, using the Instat software from GraphPad inc.

[8] = bFGF 0.05 + compound 0.25 μg/embryo

Q: Which “inhibition (%) at 0.5 μM” value [1] does the source give for O=C(O)/C=C/c1ccc(-c2ccc(O)c(C34CC5CC(CC(C5)C3)C4)c2)c(Cl)c1 [3-Cl-AHPC (5)] here?
A: 60%

Q: What about the IC50 [1] of the same molecule?
A: 300 nM

Q: With O=C(O)c1ccc2c(Cl)c(-c3ccc(O)c(C45CC6CC(CC(C6)C4)C5)c3)ccc2c1 [5-Cl-AHPN (2)] as the molecule, how does the “inhibition (%) at 0.5 μM” value [1] read?
A: 45%

Q: For COc1ccc(-c2ccc(/C=C/CO)cc2)cc1C12CC3CC(CC(C3)C1)C2 [Example 7, E-4-(3-(1-adamantyl)-4-methoxyphenyl)cinnamyl alcohol], which melting point is on record?
A: 148 °C

Q: What does the source list for COc1ccc(-c2ccc(/C=C/C(=O)O)cc2)cc1C12CC3CC(CC(C3)C1)C2 [ST1898, E-4-(3-(1-adamantyl)-4-methoxyphenyl)cinnamic acid]?
A: IC50 [2]: 8800 ± 600 nM; IC50 [3]: 1700 ± 200 nM; IC50 [4]: 380 ± 20 nM; AC50 [5]: 19 nM; Δvessels, change vs bFGF alone [6, 8]: (−71%); 12th day (72 hours), number of vessels per sponge [6, 8]: 10 ± 1 vessels per sponge; Δvessels [6, 8]: 7 ± 1 vessels per sponge

Q: For CC(=O)O[C@H]1C(=O)[C@@]2(C)[C@H]([C@H](OC(=O)c3ccccc3)[C@]3(O)C[C@H](OC(=O)[C@H](O)[C@@H](NC(=O)c4ccccc4)c4ccccc4)C(C)=C1C3(C)C)[C@]1(OC(C)=O)CO[C@@H]1C[C@@H]2O [Taxol, reference compound], which “BWL % Max” value [7] is on record?
A: 4%

Q: What about the Lethality [7] of the same molecule?
A: 0/8

Q: What about the “TVI % ± SE” value [7] of the same molecule?
A: 0%

Q: With CC1=C(/C=C/C(C)=C/C=C/C(C)=C/C(=O)O)C(C)(C)CCC1 [trans-RA (7), trans-Retinoic Acid] as the molecule, how does the “inhibition (%) at 0.5 μM” value [1] read?
A: 10%

Q: And the IC50 [1]?
A: > 500 nM

Q: Which “12th day (72 hours), number of vessels per sponge” value ([6]; bFGF 0.05 μg/embryo alone) does the source give for “bFGF: basic Fibroblast Growth Factor, inducer of vasoproliferation in the CAM model [reference compound]” here?
A: 28 ± 2 vessels per sponge and 19 ± 1 vessels per sponge and 22 ± 1 vessels per sponge

Q: And the Δvessels ([6]; bFGF 0.05 μg/embryo alone)?
A: 24 ± 1 vessels per sponge and 15 ± 1 vessels per sponge and 19 ± 1 vessels per sponge
